Reference: US20250114362A1, “METHODS AND COMPOSITIONS FOR TREATMENT OF CUTANEOUS PROLIFERATIVE DISORDERS AND OTHER SKIN CONDITIONS” (ASYMMETRIC THERAPEUTICS, LLC, priority 2022, published 2025)
“And” between values parts separate entries of the source, which are not always exact repeats. Identical values can stand only once.

Legend:
[1] = tested on: Ki67; assay: MatTek PSE culture system, Ki67 level by PCR; type: cell-based, human; settings: for Relative Ki67 Level: Day 6, normalized to control at Day 0 = 1.0; for Relative Expression Levels, Ki67: after two days of treatment
Protocol: The level of Ki67 in the MatTek tissue culture system was also determined. Ki67 is a nuclear protein and a replication marker. The level of Ki67 was determined by polymerase chain reaction (PCR) analysis with standard protocols. The relative levels are normalized with respect to the measured Ki67 level of the control at Day 0, which is adjusted to 1.0.
(§1) Other markers of cell proliferation were also measured, namely (protein p21), and four markers of inflammatory signaling (IL17A, IL23A, TNF-α, and transforming growth factor beta (TGF-β)) in the MatTek PSE culture system after two days of treatment were also determined. Ki67 is a nuclear protein and a replication marker. The marker levels were determined by isolating total RNA by a Promega SV96 Total RNA Isolation Vacuum System (Promega, Madison, WI) according to the manufacturer's instructions. The total RNA was reverse transcribed using an ABI High Capacity cDNA reverse transcription kit (Applied Biosystems, Foster City, CA). Quantitative real-time polymerase chain reaction (qPCR) was performed with the use of a SYBR Green PCR Master Mix (Applied Biosystems) according to the manufacturer's protocol and amplified on a StepOnePlus Real-Time PCR System.

[2] = tested on: p21; assay: MatTek PSE culture system, p21 mRNA by qPCR; type: cell-based, human; settings: after two days of treatment
Protocol: as §1

[3] = tested on: IL17A; assay: MatTek PSE culture system, IL17A mRNA by qPCR; type: cell-based, human; settings: after two days of treatment
Protocol: as §1

[4] = tested on: IL23A; assay: MatTek PSE culture system, IL23A mRNA by qPCR; type: cell-based, human; settings: after two days of treatment
Protocol: as §1

[5] = tested on: TNF-α; assay: MatTek PSE culture system, TNF-α mRNA by qPCR; type: cell-based, human; settings: after two days of treatment
Protocol: as §1

[6] = tested on: TGF-β; assay: MatTek PSE culture system, TGF-β mRNA by qPCR; type: cell-based, human; settings: after two days of treatment
Protocol: as §1

[7] = tested on: p21/Ki67; assay: MatTek PSE culture system, ratio of p21 to Ki67 mRNA levels; type: cell-based, human; settings: after two days of treatment; treatment compositions of Table 5
Protocol: Ki67 is a replication marker for cells and the lower the value, the lower the replication rate. P21 is a protein which is a marker for the inhibition of cell proliferation. Thus, an increased ratio of P21/Ki67 indicates decreased cell replication. FIG. 9 illustrates this ratio under several conditions as described in Example 2.
as §1
To highlight effects on cell proliferation, the ratio of p21 to Ki67 mRNA levels were calculated, with the results being shown in FIG. 9.

[8] = tested on: MatTek human PSE culture system (SOR-300-FT); assay: MatTek human PSE culture system, tissue layer thickness and histology
Description: The thickness of each of the three tissue layers of skin was monitored and measured after two days and after six days of exposure to the treatment medium in a blinded fashion by a board-certified and nationally respected pathologist.

[9] = tested on: HaCaT cells; assay: M5 cocktail psoriasis-like HaCaT keratinocyte model, live and dead cell numbers by MultiTox-Glo Multiplex Cytotoxicity Assay
Protocol: Immortalized human keratinocytes (HaCaT cells) purchased from AddexBio (San Diego, CA) were maintained in vitro in Dulbecco's modified Eagle's medium (DMEM) supplemented with 10% Fetal Bovine Serum (FBS) and antibiotics (100 U/mL penicillin and […] streptomycin) and cultured in an incubator with 5% CO2 at 37° C.
HaCaT cells were seeded at approximately 50% density (1×10^4 cells/well) and after 16 h the medium was replaced with 50 μL of pre-treatment medium containing different concentrations of allopurinol (0, 0.5, or 3 mM) or methotrexate (1 μM) and placed back into the incubator. Treatment media was prepared using standard media containing vehicle control (PBS) or M5 cocktail.
Other HaCaT cells were incubated in vitro for 72 hours in the presence of a M5 composition that also included 1.0 μM methotrexate, 0.5 mM allopurinol, 3.0 mM allopurinol, 0.5 mM oxypurinol, or 3.0 mM oxypurinol.
The number of live and dead cells were determined by the MultiTox-Glo Multiplex Cytotoxicity Assay (Promega, Madison WI) according to the manufacturer's protocol. A dilution series of cells was used to generate a standard curve for calculation of cell number in each well. The total number of cells was the sum of the live and dead cells.

[10] = tested on: psoriasis; settings: Viglioglia et al. 1970; cited from earlier work
[11] = tested on: psoriasis; settings: oral administration; double-blind cross-over study, Feuerman et al. 1973; cited from earlier work
[12] = tested on: hand-foot syndrome; settings: topical; prevention of hand-foot syndrome; trial by Rodemer; cited from earlier work
[13] = 0.5 mM, 0 hours (baseline), M5 cocktail, ± standard deviation
[14] = 0.5 mM, 0 hours (baseline), relative to 9177 live cells at zero hours
[15] = 0.5 mM, 48 hours, M5 cocktail, ± standard deviation
[16] = 0.5 mM, 48 hours, relative to 9177 live cells at zero hours
[17] = 0.5 mM, 72 hours, M5 cocktail, ± standard deviation
[18] = 0.5 mM, 72 hours, relative to 9177 live cells at zero hours
[19] = 3.0 mM, 0 hours (baseline), M5 cocktail, ± standard deviation
[20] = 3.0 mM, 0 hours (baseline), relative to 9177 live cells at zero hours
[21] = 3.0 mM, 48 hours, M5 cocktail, ± standard deviation
[22] = 3.0 mM, 48 hours, relative to 9177 live cells at zero hours
[23] = 3.0 mM, 72 hours, M5 cocktail, ± standard deviation
[24] = 3.0 mM, 72 hours, relative to 9177 live cells at zero hours
[25] = 1.0 μM, 0 hours (baseline), M5 cocktail, ± standard deviation
[26] = 1.0 μM, 0 hours (baseline), relative to 9177 live cells at zero hours
[27] = 1.0 μM, 48 hours, M5 cocktail, ± standard deviation
[28] = 1.0 μM, 48 hours, relative to 9177 live cells at zero hours
[29] = 1.0 μM, 72 hours, M5 cocktail, ± standard deviation
[30] = 1.0 μM, 72 hours, relative to 9177 live cells at zero hours

## Vitamin D
[1]; 100 nM
  Relative Ki67 Level: 1.99
  Relative Expression Levels, Ki67: 0.34 ± 0.01
[2]; 100 nM
  Relative Expression Levels, p21: 5.10 ± 0.70
[3]; 100 nM
  Relative Expression Levels, IL17A: 0.06 ± 0.03
[4]; 100 nM
  Relative Expression Levels, IL23A: 0.45 ± 0.07
[5]; 100 nM
  Relative Expression Levels, TNF-α: 0.48 ± 0.17
[6]; 100 nM
  Relative Expression Levels, TGF-β: 0.35 ± 0.09
[7]
  p21/Ki67 ratio (mRNA levels): markedly increased
[8]; 100 nM, 2 days
  Layer Thickness, Dermis: 0.25 mm
  Layer Thickness, Epidermis: 0.15 mm
  Layer Thickness, Stratum Corneum: 0.05 mm
[8]; 100 nM, 6 days
  Layer Thickness, Dermis: 0.2 mm
  Layer Thickness, Epidermis: 0.2 mm
  Layer Thickness, Stratum Corneum: 0.2 mm

## Oc1ncnc2[nH]ncc12 [allopurinol]
[9]; [13]
  Cell Counts, 0 hours, Dead: 801 ± 19
  Cell Counts, 0 hours, Live: 9177 ± 90
[9]; [14]
  Cell Ratios, 0 hours, Dead: 0.087
  Cell Ratios, 0 hours, Total: 1.087
[9]; [15]
  Cell Counts, 48 hours, Dead: 2319 ± 141
  Cell Counts, 48 hours, Total: 11705 ± 161
[9]; [16]
  Cell Ratios, 48 hours, Dead: 0.253
  Cell Ratios, 48 hours, Total: 1.275
[9]; [17]
  Cell Counts, 72 hours, Dead: 4024 ± 166
  Cell Counts, 72 hours, Total: 13428 ± 216
[9]; [18]
  Cell Ratios, 72 hours, Dead: 0.44 and 0.438
  Cell Ratios, 72 hours, Total: 1.46 and 1.463
[9]; [19]
  Cell Counts, 0 hours, Dead: 801 ± 19
  Cell Counts, 0 hours, Live: 9177 ± 90
[9]; [20]
  Cell Ratios, 0 hours, Dead: 0.087
  Cell Ratios, 0 hours, Total: 1.087
[9]; [21]
  Cell Counts, 48 hours, Dead: 1275 ± 117
  Cell Counts, 48 hours, Total: 9038 ± 176
[9]; [22]
  Cell Ratios, 48 hours, Dead: 0.139
  Cell Ratios, 48 hours, Total: 0.985
[9]; [23]
  Cell Counts, 72 hours, Dead: 2004 ± 168
  Cell Counts, 72 hours, Total: 9367 ± 280
[9]; [24]
  Cell Ratios, 72 hours, Dead: 0.22 and 0.218
  Cell Ratios, 72 hours, Total: 1.02 and 1.021
[1]; 0.5 mM
  Relative Ki67 Level: 3.18
  Relative Expression Levels, Ki67: 0.27 ± 0.01
[1]; 3 mM
  Relative Ki67 Level: 0.96
  Relative Expression Levels, Ki67: 0.42 ± 0.09
[2]; 0.5 mM
  Relative Expression Levels, p21: 1.27 ± 0.10
[2]; 3 mM
  Relative Expression Levels, p21: 1.40 ± 0.17
[3]; 0.5 mM
  Relative Expression Levels, IL17A: 0.21 ± 0.07
[3]; 3 mM
  Relative Expression Levels, IL17A: 0.09 ± 0.04
[4]; 0.5 mM
  Relative Expression Levels, IL23A: 0.95 ± 0.20
[4]; 3 mM
  Relative Expression Levels, IL23A: 0.66 ± 0.17
[5]; 0.5 mM
  Relative Expression Levels, TNF-α: 0.75 ± 0.13
[5]; 3 mM
  Relative Expression Levels, TNF-α: 0.82 ± 0.19
[6]; 0.5 mM
  Relative Expression Levels, TGF-β: 0.90 ± 0.09
[6]; 3 mM
  Relative Expression Levels, TGF-β: 0.60 ± 0.12
[7]
  p21/Ki67 ratio (mRNA levels): markedly increased
[10]
  cases with excellent results: 50%
  cases with good results: 34%
  cases with moderate results: 16%
[11]
  improvement in psoriasis versus placebo: no improvement over a placebo
[12]
  clinical efficacy endpoint: did not meet its clinical efficacy endpoint
[8]; 0.5 mM, 2 days
  Layer Thickness, Dermis: 0.4 mm
  Layer Thickness, Epidermis: 0.1 mm
  Layer Thickness, Stratum Corneum: 0.05 mm
[8]; 0.5 mM, 6 days
  Layer Thickness, Dermis: 0.25 mm
  Layer Thickness, Epidermis: 0.1 mm
  Layer Thickness, Stratum Corneum: 0.05 mm
[8]; 3.0 mM allopurinol alone
  increase in dermis layer thickness from treatment for 2 days to 6 days: 1.4 fold
[8]; 3 mM, 2 days
  Layer Thickness, Dermis: 0.25 mm
  Layer Thickness, Epidermis: 0.1 mm
  Layer Thickness, Stratum Corneum: 0.02 mm
[8]; 3 mM, 6 days
  Layer Thickness, Dermis: 0.35 mm
  Layer Thickness, Epidermis: 0.15 mm
  Layer Thickness, Stratum Corneum: 0.1 mm

## CN(Cc1cnc2nc(N)nc(N)c2n1)c1ccc(C(=O)N[C@@H](CCC(=O)O)C(=O)O)cc1 [methotrexate]
[9]; [25]
  Cell Counts, 0 hours, Dead: 801 ± 19
  Cell Counts, 0 hours, Live: 9177 ± 90
[9]; [26]
  Cell Ratios, 0 hours, Dead: 0.087
  Cell Ratios, 0 hours, Total: 1.087
[9]; [27]
  Cell Counts, 48 hours, Dead: 4826 ± 464
  Cell Counts, 48 hours, Total: 11194 ± 545
[9]; [28]
  Cell Ratios, 48 hours, Dead: 0.526
  Cell Ratios, 48 hours, Total: 1.220
[9]; [29]
  Cell Counts, 72 hours, Dead: 6300 ± 289
  Cell Counts, 72 hours, Total: 11587 ± 593
[9]; [30]
  Cell Ratios, 72 hours, Dead: 0.69 and 0.686
  Cell Ratios, 72 hours, Total: 1.26 and 1.263

## O=c1[nH]c(=O)c2c[nH]nc2[nH]1 [oxypurinol]
[9]; [13]
  Cell Counts, 0 hours, Live: 9177 ± 90
[9]; [14]
  Cell Ratios, 0 hours, Total: 1.087
[9]; [15]
  Cell Counts, 48 hours, Total: 14960 ± 100
[9]; [16]
  Cell Ratios, 48 hours, Total: 1.630
[9]; [17]
  Cell Counts, 72 hours, Total: 17036 ± 222
[9]; [18]
  Cell Ratios, 72 hours, Total: 1.86 and 1.856
[9]; [19]
  Cell Counts, 0 hours, Live: 9177 ± 90
[9]; [20]
  Cell Ratios, 0 hours, Total: 1.087
[9]; [21]
  Cell Counts, 48 hours, Total: 13069 ± 142
[9]; [22]
  Cell Ratios, 48 hours, Total: 1.424
[9]; [23]
  Cell Counts, 72 hours, Total: 14228 ± 282
[9]; [24]
  Cell Ratios, 72 hours, Total: 1.55
[9]; human, 0 h, 0.5 mM
  Cell Counts, 0 hours, Dead: 801 ± 19
  Cell Ratios, 0 hours, Dead: 0.087
[9]; human, 0 h, 3 mM
  Cell Counts, 0 hours, Dead: 801 ± 19
  Cell Ratios, 0 hours, Dead: 0.087
[9]; human, 48 h, 0.5 mM
  Cell Counts, 48 hours, Dead: 2937 ± 65
  Cell Ratios, 48 hours, Dead: 0.320
[9]; human, 48 h, 3 mM
  Cell Counts, 48 hours, Dead: 2508 ± 124
  Cell Ratios, 48 hours, Dead: 0.273
[9]; human, 72 h, 0.5 mM
  Cell Counts, 72 hours, Dead: 4761 ± 200
[9]; human, 72 h, 3 mM
  Cell Counts, 72 hours, Dead: 3691 ± 244

## N[C@@H](CCC(=O)N[C@@H](CS)C(=O)NCC(=O)O)C(=O)O [glutathione]
[1]; 3 mM
  Relative Expression Levels, Ki67: 0.27 ± 0.01
[2]; 3 mM
  Relative Expression Levels, p21: 1.35 ± 0.06
[3]; 3 mM
  Relative Expression Levels, IL17A: 0.04 ± 0.02
[4]; 3 mM
  Relative Expression Levels, IL23A: 0.79 ± 0.14
[5]; 3 mM
  Relative Expression Levels, TNF-α: 0.29 ± 0.07
[6]; 3 mM
  Relative Expression Levels, TGF-β: 0.77 ± 0.10
[7]
  p21/Ki67 ratio (mRNA levels): markedly increased
[8]; 3 mM, 2 days
  Layer Thickness, Dermis: 0.3 mm
  Layer Thickness, Epidermis: 0.2 mm
  Layer Thickness, Stratum Corneum: 0.15 mm
